Measurements from patent publication US20240239883A1, “METHODS OF TREATING HOMOLOGOUS RECOMBINATION DEFICIENT CANCER” (ASTRAZENECA AB, priority 2020, published 2024).
Several values for one entry are separate records, joined by “and”; a condition that tells them apart may be missing. Equal entries are not always repeated.

How the values were obtained:
[1] = test system: patients with newly diagnosed, FIGO stage III-IV, high-grade serous or endometrioid ovarian cancer, fallopian tube or primary peritoneal cancer; experiment: PAOLA-1/ENGOT-ov25 phase III trial, first line maintenance: progression-free survival and other efficacy variables; format: in vivo, human
Method: Olaparib tablets orally 300 mg twice daily (bd) • 2. Placebo tablets orally 300 mg bd
Patients included in the study were female patients with newly diagnosed advanced (FIGO (International Federation of Gynaecology and Obstetrics) Stage IIIB, IIIC or IV) ovarian cancer, primary peritoneal cancer and/or fallopian tube cancer that was histologically confirmed as: (a) high-grade serous, or (b) high-grade endometrioid, or (c) other epithelial non mucinous ovarian cancer in a patient with gBRCA1 or 2 deleterious mutation.
Additionally, patents had completed first line platinum-taxane chemotherapy prior to randomization. Specifically, the platinum-taxane based regimen consisted of a minimum of 6 and a maximum of 9 treatment cycles; however, if platinum-based therapy was discontinued early as a result of non-haematological toxicity specifically related to the platinum regimen, (i.e., neurotoxicity, hypersensitivity, etc.), patients must have received a minimum of 4 cycles of the platinum regimen. Intravenous, intraperitoneal, or neoadjuvant platinum based chemotherapy was also allowed; for weekly therapy, 3 weeks was considered to be 1 cycle.
Prior to randomization, patients had no evidence of disease (NED) or had been in clinical complete response (CR) or in partial response (PR) following first line treatment. There should have been no clinical evidence of disease progression (physical exam, imaging, or cancer antigen-125 (CA-125)) throughout the first line treatment and prior to study randomization.
Finally, patients were randomized at least 3 weeks and no more than 9 weeks after their last dose of chemotherapy (last dose is the day of the last infusion) and all major toxicities from the previous chemotherapy were resolved.
Tumor samples from the patients were tested post-randomization (but prior to database lock) using the Myriad myChoice® HRD Plus test in order to investigate efficacy in pre-defined biomarker subgroups. The Myriad myChoice® HRD Plus test is delivered from a single central laboratory in Salt Lake City, Utah; it detects and classifies the following biomarkers simultaneously in tumor tissue:
Myriad HRD status is based on the Myriad HRD score and tBRCAm status. A positive Myriad HRD status is determined either by presence of a tBRCA1/2 mutation or by an HRD score at or above a pre-specified cut-off in the absence of a BRCA1/2 mutation. The Myriad HRD cut-off of 42 detects 95% of BRCAm tumors and has been extensively investigated as a biomarker of PARP inhibitor benefit in ovarian cancer. The cut-off of 42 has now been FDA-approved for another PARP inhibitor for the treatment of relapsed ovarian cancer (Myriad myChoice® HRD test offered under the name myChoice® CDx). Reducing the cut-off to 33, enables detection of 99% of BRCAm tumors and retrospective analyses from 2 clinical studies raised the possibility that a 33 cut-off may provide greater precision in determining patients who may benefit from PARP inhibitor treatment.
The data cut-off (DCO) for the analysis of progression-free survival (PFS) PFS is time from randomization to first progression or death according to modified Response Evaluation Criteria in Solid Tumours (RECIST version 1.1). PFS took place when 474 progression events had occurred (58.8% maturity), approximately 45 months after the first patient was randomized. At this DCO, all efficacy, QoL and safety variables were analyzed, as appropriate, based on the amount of data available at that time.
PFS (based on investigator assessment) was the primary variable for the study and was analyzed based on the primary data cut-off using the investigator assessment population.

[2] = in vivo
Method: The study design was put into practice as the PAOLA-1/ENGOT-ov25 trial (NCT02477644), which was a randomised, double-blind, international phase III trial that enrolled patients with newly diagnosed, FIGO stage III-IV, high-grade serous or endometrioid ovarian cancer, fallopian tube or primary peritoneal cancer.
Patients were randomized in a 2:1 ratio to the treatments as specified below: • 1. Olaparib tablets orally 300 mg twice daily (bd) • 2. Placebo tablets orally 300 mg bd
The “overall study duration” phase was defined as from the first dose of olaparib or placebo until the last dose of olaparib or placebo+30 days (to account for the 30 day follow-up period).
Common Terminology Criteria for Adverse Events (CTCAE) (version 4.03) defines Grade 1 hypertension as having systolic BP 120-139 mmHg or diastolic BP 80-89 mm Hg; Grade 2 as having systolic BP 140-159 mmHg or diastolic BP 90-99 mm Hg, or recurrent or persistent (≥24 hrs) symptomatic increase by >20 mm Hg (diastolic) or to >140/90 mmHg; Grade 3 as having systolic BP ≥160 mmHg or diastolic BP ≥100 mmHg; Grade 4 hypertension as having life-threatening consequences, e.g., requiring urgent intervention; and Grade 5 hypertension as death.
An adverse event considered “serious” if, in the view of either the investigator or sponsor, it results in any of the following outcomes: death, a life-threatening adverse event, inpatient hospitalization or prolongation of existing hospitalization, or a persistent or significant incapacity or substantial disruption of the ability to conduct normal life functions.
Common Terminology Criteria for Adverse Events (CTCAE) (version 4.03) defines Grade 1 proteinuria as urine dipstick 1+ or <1.0 grams of protein per 24 hours; Grade 2 as urine dipstick 2+ or 1.0-3.4 grams of protein per 24 hours; Grade 3 as urine dipstick 4+ or ≥3.5 grams of protein per 24 hours.

[3] = cited from earlier work
[4] = overall population, KM estimate
[5] = overall population, KM estimate, listed as placebo-plus-bevacizumab
[6] = overall population, KM estimate, listed as placebo/bevacizumab

## Placebo/bevacizumab: Comparator arm: placebo tablets plus bevacizumab 15 mg/kg every 3 weeks (bevacizumab alone, without olaparib)
[1]; PFS2 data 39.1% mature
  patients not classified as having had a second progression at the time of analysis (PFS2): 55.8%
[1]; all patients
  median time until the first subsequent treatment: 18.5 months
[1]; interim analysis of second progression-free survival, data maturity 39%, Kaplan-Meier estimate
  rate of freedom from second disease progression and death at 18 months: 80%
[1]; overall population
  patients for whom progression occurred on treatment: 71.6%
  patients not classified as having progressed at the time of analysis: 27.9%
[1]; overall population (FAS), investigator assessment, modified RECIST 1.1 or death, primary data cut-off
  n (%) of events (PFS): 194 (72.1) n (%)
[1]; [4]
  Progression free at 6 months: 85.3%
  Progression free at 12 months: 65.6%
  Progression free at 18 months: 45.8%
  Progression free at 24 months: 27.7%
[1]; [5]
  Progression free at 12 months: 66%
  Progression free at 18 months: 46%
  Progression free at 24 months: 28%
[1]; [6]
  Progression free at 12 months: 65.6%
  Progression free at 24 months: 27.7%
[1]; overall population, KM techniques
  Median PFS (95% CI): 16.6 months and 16.6 (15.4, 18.6) months
[1]; overall population, at data cut-off (474 events, 58.8% maturity)
  proportion of patients with PFS events: 72.1%
[1]; patients with HRD-negative tumors (277 patients)
  median progression-free survival: 16.2 months
[1]; patients with HRD-negative tumors or whose tumor HRD status was unknown (419 patients)
  median progression-free survival: 16.0 months
[1]; patients with HRD-positive tumors that did not have BRCA mutations (FIG. 3D)
  median progression-free survival: 16.6 months
[1]; patients with a tumor BRCA mutation (FIG. 3A)
  median progression-free survival: 21.7 months
[1]; patients with tumors positive for HRD (score ≥42 on myChoice HRD Plus or tumor BRCA mutation) (FIG. 3C)
  median progression-free survival: 17.7 months
[1]; patients without a tumor BRCA mutation (FIG. 3B)
  median progression-free survival: 16.0 months
[2]
  Hypertension (serious adverse events): 35 (13.1) Number (%) of patients
  Hypertension CTCAE all Grades: 160 (59.9) Number (%) of patients
  Proteinuria CTCAE Grade 3 or higher: 1 (0.4) Number (%) of patients
  Proteinuria CTCAE all Grades: 40 (15.0) Number (%) of patients
  Vascular disorders (serious adverse events): 35 (13.1) Number (%) of patients
  adverse drug reactions of proteinuria: 15.4%
  patients who reported adverse events (AEs): 95.9%

## bevacizumab: recombinant humanized monoclonal IgG1 antibody, vascular endothelial growth factor inhibitor
[3]; Study BO17705
  overall incidence of proteinuria (all grades): 20%
[3]; after median follow-up of 11.2 months
  patients in whom proteinuria did not resolve: 40%
[3]; of the patients who developed proteinuria
  proteinuria required discontinuation of bevacizumab: 30%
[2]
  incidence of CTCAE Grade ≥3 hypertension: about 30%

## O=C(c1cc(Cc2n[nH]c(=O)c3ccccc23)ccc1F)N1CCN(C(=O)C2CC2)CC1 [olaparib, 4-[(3-{[4-(cyclopropane-carbonyl)piperazine-1-yl]carbonyl}-4-fluorophenyl)methyl]-2H-phthalazin-1-one]
[1]; overall subject population, olaparib in addition to bevacizumab
  progression free survival greater than for subjects receiving bevacizumab alone: at least 4 months
